In publication PMC8482806, “A Novel Blood-Brain Barrier-Permeable Chemotherapeutic Agent for the Treatment of Glioblastoma” (Cureus, 2021):

Columns and labels:
[1] = system: breast cancer metastatic tumors; design: method as in PMID 34635566; conditions: leptomeningeal metastatic disease model, BBB never disrupted; cited from earlier work
U251 cells = assay: Cell viability assay (CellTiter-Glo), U251; format: cell-based; conditions: Homo sapiens, U-251; Cell Line: U251; read-out: LC50 (μM ± SD)
Description: (§1) In vitro activity of QBS10072S was assessed using a modified clonogenic cell viability assay in 96-well clear-bottom plates. For the LLC-PK1 inducible LAT1-expressing cell line, 1000 cells/well were plated and cells were treated with either butyrate alone (non-induced) or with both butyrate and doxycycline (induced) as described above. For GBM cell lines, 2000 cells/well were plated. On day 2 (GBM) or day 3 (LLC-PK1) after original plating, cells were washed twice with PBS and incubated with 50 μL of various concentrations of QBS10072S in PBS in at least quadruplicate. After 30 minutes at 37°C, 200 μL of growth medium was added to each well. Clonal populations were allowed to grow until the control wells (mock treatment) were near confluence (7 to 10 days). At this point, 170 μL media were removed and 60 μL CellTiter-Glo® (Promega, Madison, WI) were added to each well. Plates were placed on an orbital shaker for three minutes to lyse the cells and then incubated for an additional 10 minutes at RT to stabilize the luminescent signal. Luminescence was recorded using an EnSpire® Multimode Plate Reader (Perkin Elmer). Background (luminescence from wells incubated with 100 μM melphalan or lomustine) was subtracted and data were normalized to the control. EC50s were determined by non-linear regression using GraphPad Prism.

[2] = [14C]-QBS10072S distribution by quantitative whole-body autoradiography in mice with intracranial LN229 tumors; format: in vivo, mouse; conditions: 5 mg/kg IV
Description: Athymic mice with intracranial implanted LN229 cells received a single IV dose of 5 mg/kg and 200 μCi/kg [14C]-QBS10072S into the tail vein using the formulation described above. Animals (one per time point) were sacrificed one, eight, and 24 hours post-dose, and frozen in a hexane/solid carbon dioxide bath for at least 10 minutes. The carcasses were processed as described for quantitative whole-body autoradiography. Briefly, sagittal sections (~ 40 μm thick) were cut using a microtome, mounted, and exposed to a [14C]-sensitive phosphor imaging plate for four days. The images were scanned and quantitated by image densitometry using MCID image analysis software. The concentrations of radioactivity were expressed as the μg equivalents of test article per gram sample (μg equiv/g). The upper and lower limits of quantification were 550 and 0.008 μg equiv/g, respectively (QPS, Newark, DE).

AM38 cells = assay: Cell viability assay (CellTiter-Glo), AM38; format: cell-based; conditions: Homo sapiens, AM-38; Cell Line: AM38; read-out: LC50 (μM ± SD)
Description: as §1

[3] = Tolerability in non-tumor-bearing nude mice; format: in vivo, mouse; conditions: 5 or 10 mg/kg IV once a week for four weeks
Description: The tumor-suppressive activity of QBS10072S was evaluated in two orthotopic murine models of GBM using luciferase-expressing U251 and LN229 cell lines. Tumor volume was monitored by BLI measurement. The tolerability of QBS10072S was first tested by dosing 5 or 10 mg/kg IV once a week for four weeks into non-tumor-bearing nude mice (Figure 6). The body weights and white blood cell counts were not affected by this treatment, so QBS10072S was tested at various doses up to 10 mg/kg in the GBM models.
Figure 6 Tolerability of QBS10072S in nude mice Non-tumor-bearing nude mice were dosed IV with vehicle or QBS10072S (5 or 10 mg/kg) once a week for four weeks (arrows). Body weights were measured every three days and complete blood counts were determined once a week for seven weeks. A: Percent change in body weight over the course of the study, normalized to pre-dose weight. B: White blood cell (WBC) counts for each study arm. Horizontal bars represent the normal range of WBCs in these mice.

[4] = Maximum tolerated dose in Sprague-Dawley rats; format: in vivo, rat; conditions: highest dose 10 mg/kg IV on day zero
Description: Figure 7 Maximum tolerated dose in rats Sprague-Dawley rats (4 per arm) were dosed IV on day zero with vehicle or 2.5, 5, or 10 mg/kg of QBS10072S. Animals were monitored for two weeks for body weight changes (A), survival (B), and complete blood counts, including white blood cells (C), neutrophils (D), lymphocytes (E), red blood cells (F), platelets (G), and reticulocytes (H). Cell count results are expressed as cell count per μl. The normal cell count range for each type of cell is between the “max” and “min” lines, and the average value is indicated with a dotted line. Based on allometric scaling, 2.5, 5, and 10 mg/kg in rats is equivalent to 5, 10, and 20 mg/kg.

DBTRG cells = assay: Cell viability assay (CellTiter-Glo), DBTRG; format: cell-based; conditions: Homo sapiens; Cell Line: DBTRG; read-out: LC50 (μM ± SD)
Description: as §1

## Cc1ccc(N(CCCl)CCCl)cc1C[C@H](N)CC(=O)O [QBS10072S, (+)-(3S)-amino-4-[5-[bis(2-chloroethyl)amino]-2-methyl-phenyl]butanoic acid]
[1]
  inhibition of tumor growth with intact BBB: still effective for inhibiting tumor growth
U251 cells
  CC50: 12 ± 2 µM
[2]; 1 hour post-dose
  level in brain tumor as % of blood levels: 89%
[2]; 8 hours post-dose
  level in brain tumor as % of blood levels: 73%
[2]; 24 hours post-dose
  level in brain tumor as % of blood levels: 37%
AM38 cells
  CC50: 14 ± 4 µM
[3]
  body weights: not affected
  white blood cell counts: not affected
[4]
  maximum tolerated dose: the highest dose was greater than the maximum tolerated dose
DBTRG cells
  CC50: 5 ± 2 µM
